Patent US10208074B2, “Pyrazole compounds and method for making and using the compounds” (Rigel Pharmaceuticals, Inc., priority 2015, dated 2019)
Counter-ions that a name gives are not always drawn. Like-named read-outs stand apart in the source and are kept apart here.

Key:
IL-23 (p19/p40) = assay: IL23-p19 ELISA, Dendritic, LPS (compound screening using DC cells); assay type: cell-based, Human; conditions: PBMC-derived DC cells, IFNγ primed, LPS 1 μg/ml, 18 hours, 10 pt, read-out: IL23-p19 ELISA, Dendritic, LPS, 10 pt, EC50
In short: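 Human PBMC-derived dendritic cells (7 d GM-CSF 100 ng/ml + IL-4 20 ng/ml), primed 24 h with IFNγ 50 ng/ml, pre-incubated 1 h with compound, then stimulated 18 h with LPS 1 μg/ml. Supernatant IL-23 measured by p19-capture/p40-detection chemiluminescent ELISA; CellTiter Glo checks cytotoxicity.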

IL-23p19 = assay: LPS induced IL23p19 in THP-1 cells (with IFNγ primed) assay; assay type: cell-based, Human; conditions: THP-1 cells, IFNγ primed, LPS 1 ug/mL, 18 hours, 10 pt, read-out: IL23-p19 ELISA, THP1-IFNy, LPS, 10 pt EC50
In short: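 THP-1 cells primed ~18 h with IFNγ (50 ng/mL), pre-incubated 1 h with compound at 37 °C, then stimulated 18 h with LPS (1 ug/mL final). Supernatant IL-23p19 measured by sandwich ELISA with chemiluminescent read-out; EC50 from curve fitting. Toxicity checked on the remaining cells by Cell Titer Glo.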

Q: `CCO[C@@H]1CC[C@H](n2cc(NC(=O)c3csc(-c4cn[nH]c4)n3)c(-c3ccccn3)n2)C1` (relative stereo) [II-147, N-(1-((cis)-3-ethoxycyclopentyl)-3-(pyridin-2-yl)-1H-pyrazol-4-yl)-2-(1H-pyrazol-4-yl)thiazole-4-carboxamide] was tested. Which EC50 (IL-23 (p19/p40); Homo sapiens, 18 h) did it give?
A: Its EC50 is 98.7 nM.

Q: And the EC50 (IL-23p19; Homo sapiens, THP-1, 18 h)?
A: The EC50 was 57.4 nM.

Q: Which results are given for `CCO[C@H]1C[C@@H](n2cc(NC(=O)c3ccc(-c4cn[nH]c4)o3)c(-c3cccc(F)n3)n2)C1` [Compound I-144, N-(1-((1s,3s)-3-ethoxycyclobutyl)-3-(6-fluoropyridin-2-yl)-1H-pyrazol-4-yl)-5-(1H-pyrazol-4-yl)furan-2-carboxamide formate]?
A: EC50 (IL-23 (p19/p40); Homo sapiens, 18 h): 34.3 nM; EC50 (IL-23p19; Homo sapiens, THP-1, 18 h): 78 nM

Q: `Cn1cc(-c2ccc(C(=O)Nc3cn(C)nc3-c3ccccn3)o2)cn1` [Compound I-69, 5-(1-Methyl-1H-pyrazol-4-yl)-N-{1-methyl-3-(pyridine-2-yl)-1H-pyrazol-4-yl}furan-2-carboxamide, formate salt] was tested. Which EC50 (IL-23 (p19/p40); Homo sapiens, 18 h) did it give?
A: Its EC50 is 325 nM.

Q: And the EC50 (IL-23p19; Homo sapiens, THP-1, 18 h)?
A: Its EC50 is 1250 nM.

Q: For `CCO[C@H]1C[C@@H](n2cc(NC(=O)c3csc(-c4cnn(COP(=O)(O)O)c4)n3)c(-c3ccccn3)n2)C1` [II-77, (4-(4-((1-((1,3-cis)-3-ethoxycyclobutyl)-3-(pyridin-2-yl)-1H-pyrazol-4-yl)carbamoyl)thiazol-2-yl)-1H-pyrazol-1-yl)methyl phosphate bis-potassium salt], which EC50 (IL-23 (p19/p40); phosphate bis-potassium salt) is on record?
A: Its EC50 is 146 nM.

Q: And the EC50 (IL-23p19; phosphate bis-potassium salt)?
A: The EC50 was 147 nM.

Q: What does the source list for `O=C(Nc1cn(C2C=C(F)C2)nc1-c1ccccn1)c1csc(-c2cn[nH]c2)n1` (stereo not drawn) [II-133, N-(1-(3-fluorocyclobut-2-en-1-yl)-3-(pyridin-2-yl)-1H-pyrazol-4-yl)-2-(1H-pyrazol-4-yl)thiazole-4-carboxamide formate]?
A: EC50 (IL-23 (p19/p40); formate): 1520 nM; EC50 (IL-23p19; formate): 313 nM

Q: `CCO[C@H]1C[C@@H](n2cc(NC(=O)c3csc(-c4cn[nH]c4)n3)c(-c3ccccn3)n2)C1` [II-11, N-(1-((1,3-cis)-3-ethoxycyclobutyl)-3-(pyridin-2-yl)-1H-pyrazol-4-yl)-2-(1H-pyrazol-4-yl)thiazole-4-carboxamide] was tested. Which EC50 (IL-23 (p19/p40); Homo sapiens, 18 h) did it give?
A: Its EC50 is 62.3 nM.

Q: What about the EC50 (IL-23p19; Homo sapiens, THP-1, 18 h) of the same compound?
A: Its EC50 is 50 nM.

Q: How did the EC50 (IL-23 (p19/p40)) turn out when `CCOCCn1cc(NC(=O)c2ccc(-c3cn[nH]c3)o2)c(-c2nccs2)n1` [Compound I-119, N-(1-(2-ethoxyethyl)-3-(thiazol-2-yl)-1H-pyrazol-4-yl)-5-(1H-pyrazol-4-yl)furan-2-carboxamide] was run?
A: The EC50 was 430 nM.

Q: What about the EC50 (IL-23p19) of the same compound?
A: The EC50 was 154 nM.

Q: Which EC50 (IL-23 (p19/p40); Homo sapiens, 18 h) does the source give for `CCOCCn1cc(NC(=O)c2ccc(-c3cnn(COP(=O)(O)O)c3)o2)c(-c2ccccn2)n1` [Compound I-54, (4-(5-((1-(2-ethoxyethyl)-3-(pyridin-2-yl)-1H-pyrazol-4-yl)carbamoyl)furan-2-yl)-1H-pyrazol-1-yl)methyl dihydrogen phosphate] here?
A: Its EC50 is 1580 nM.

Q: What about the EC50 (IL-23p19; Homo sapiens, THP-1, 18 h) of the same compound?
A: The EC50 was 617 nM.

Q: With `O=C(Nc1cn(CCOCC(F)F)nc1-c1ccccn1)c1csc(-c2cn[nH]c2)n1` [II-122, N-(1-(2-(2,2-difluoroethoxy)ethyl)-3-(pyridin-2-yl)-1H-pyrazol-4-yl)-2-(1H-pyrazol-4-yl)thiazole-4-carboxamide] as the compound, how does the EC50 (IL-23 (p19/p40); Homo sapiens, 18 h) read?
A: The EC50 was 304 nM.

Q: What about the EC50 (IL-23p19; Homo sapiens, THP-1, 18 h) of the same compound?
A: The EC50 was 213 nM.

Q: `O=C(Nc1cn(C2CN(C(=O)C3CC3(F)F)C2)nc1-c1ccccn1)c1ccc(-c2cn[nH]c2)o1` (stereo not drawn) [Compound I-103, N-[1-{1-(2,2-difluorocyclopropane-1-carbonyl)azetidin-3-yl}-3-(pyridine-2-yl)-1H-pyrazol-4-yl]-5-(1H-pyrazol-4-yl)furan-2-carboxamide, formate salt] was tested. Which EC50 (IL-23 (p19/p40); Homo sapiens, 18 h) did it give?
A: The EC50 was 55.4 nM.

Q: And the EC50 (IL-23p19; Homo sapiens, THP-1, 18 h)?
A: The EC50 was 31 nM.

Q: With `O=C(Nc1cn(C2CCC3(CC2)OCCO3)nc1-c1ncccc1F)c1csc(-c2cn[nH]c2)n1` [II-140, N-(3-(3-fluoropyridin-2-yl)-1-(1,4-dioxaspiro[4.5]decan-8-yl)-1H-pyrazol-4-yl)-2-(1H-pyrazol-4-yl)thiazole-4-carboxamide] as the compound, how does the EC50 (IL-23 (p19/p40); Homo sapiens, 18 h) read?
A: The EC50 was 32.3 nM.

Q: And the EC50 (IL-23p19; Homo sapiens, THP-1, 18 h)?
A: The EC50 was 30.8 nM.

Q: `CC(C)(C)OC(=O)N1CC(n2cc(NC(=O)c3ccc(-c4cn[nH]c4)o3)c(-c3ccccn3)n2)C1` [Compound I-74, tert-Butyl-3-[4-{5-(1H-pyrazole-4-yl)furan-2-carboxamido}-3-(pyridine-2-yl)-1H-pyrazol-1-yl]azetidine-1-carboxylate] was tested. Which EC50 (IL-23 (p19/p40)) did it give?
A: Its EC50 is 131 nM.

Q: And the EC50 (IL-23p19)?
A: The EC50 was 151 nM.

Q: With `O=C(Nc1cn(C2CNC2)nc1-c1ccccn1)c1ccc(-c2cn[nH]c2)o1` [Compound I-78, N-{1-(Azetidin-3-yl)-3-(pyridine-2-yl)-1H-pyrazol-4-yl}-5-(1H-pyrazol-4-yl)furan-2-carboxamide, TFA salt] as the compound, how does the EC50 (IL-23 (p19/p40); Homo sapiens, 18 h) read?
A: Its EC50 is 105 nM.

Q: What about the EC50 (IL-23p19; Homo sapiens, THP-1, 18 h) of the same compound?
A: The EC50 was 78.4 nM.

Q: Which EC50 (IL-23 (p19/p40); Homo sapiens, 18 h) does the source give for `COCCOCCn1cc(NC(=O)c2ccc(-c3c[nH]nc3C)o2)c(-c2ccccn2)n1` [Compound I-18, N-(1-(2-(2-methoxyethoxy)ethyl)-3-(pyridin-2-yl)-1H-pyrazol-4-yl)-5-(3-methyl-1H-pyrazol-4-yl)furan-2-carboxamide] here?
A: The EC50 was 1200 nM.

Q: What about the EC50 (IL-23p19; Homo sapiens, THP-1, 18 h) of the same compound?
A: The EC50 was 514 nM.

Q: How did the EC50 (IL-23 (p19/p40)) turn out when `CCO[C@H]1C[C@@H](n2cc(NC(=O)c3csc(-c4cnn(COP(=O)(O)O)c4)n3)c(-c3ccccn3)n2)C1` [II-81, (4-(4-((1-((1,3-cis)-3-ethoxycyclobutyl)-3-(pyridin-2-yl)-1H-pyrazol-4-yl)carbamoyl)thiazol-2-yl)-1H-pyrazol-1-yl)methyl phosphate bis-lysine salt] was run?
A: The EC50 was 171 nM.

Q: What about the EC50 (IL-23p19) of the same compound?
A: The EC50 was 19 nM.

Q: Which EC50 (IL-23 (p19/p40); Homo sapiens, 18 h) does the source give for `O=C(Nc1cn(C2CCC2)nc1-c1ccccn1)c1coc(-c2cn[nH]c2)n1` [III-5, N-(1-cyclobutyl-3-(pyridin-2-yl)-1H-pyrazol-4-yl)-2-(1H-pyrazol-4-yl)oxazole-4-carboxamide] here?
A: Its EC50 is 71 nM.

Q: And the EC50 (IL-23p19; Homo sapiens, THP-1, 18 h)?
A: The EC50 was 270 nM.

Q: With `CCOCCn1cc(NC(=O)c2csc(-c3cn[nH]c3)n2)c(-c2ccccn2)n1` [II-18, N-(1-(2-ethoxyethyl)-3-(pyridin-2-yl)-1H-pyrazol-4-yl)-2-(1H-pyrazol-4-yl)thiazole-4-carboxamide, formic acid salt] as the compound, how does the EC50 (IL-23 (p19/p40); formic acid salt) read?
A: The EC50 was 31.4 nM.

Q: What about the EC50 (IL-23p19; formic acid salt) of the same compound?
A: The EC50 was 301 nM.

Q: What does the source list for `O=C(Nc1cn(CCOCC(F)(F)F)nc1-c1ccccn1)c1csc(-c2cc[nH]n2)n1` [II-66, 2-(1H-pyrazol-3-yl)-N-(3-(pyridin-2-yl)-1-(2-(2,2,2-trifluoroethoxy)ethyl)-1H-pyrazol-4-yl)thiazole-4-carboxamide]?
A: EC50 (IL-23 (p19/p40); Homo sapiens, 18 h): 244 nM; EC50 (IL-23p19; Homo sapiens, THP-1, 18 h): 106 nM

Q: Which EC50 (IL-23 (p19/p40); Homo sapiens, 18 h) does the source give for `O=C(Nc1cn(C2C=C(F)C2)nc1-c1ccccn1)c1csc(-c2cn[nH]c2)n1` (stereo not drawn) [II-132, N-(1-(3-fluorocyclobut-2-en-1-yl)-3-(pyridin-2-yl)-1H-pyrazol-4-yl)-2-(1H-pyrazol-4-yl)thiazole-4-carboxamide] here?
A: The EC50 was 924 nM.

Q: And the EC50 (IL-23p19; Homo sapiens, THP-1, 18 h)?
A: Its EC50 is 224 nM.

Q: `O=C(Nc1cn([C@H]2C[C@@H](O)C2)nc1-c1cccc(F)n1)c1csc(-c2cn[nH]c2)n1` [II-172, N-(3-(6-fluoropyridin-2-yl)-1-((cis)-3-hydroxycyclobutyl)-1H-pyrazol-4-yl)-2-(1H-pyrazol-4-yl)thiazole-4-carboxamide] was tested. Which EC50 (IL-23 (p19/p40); Homo sapiens, 18 h) did it give?
A: The EC50 was 24.2 nM.

Q: What about the EC50 (IL-23p19; Homo sapiens, THP-1, 18 h) of the same compound?
A: Its EC50 is 13 nM.

Q: `CCO[C@H]1C[C@@H](n2cc(NC(=O)c3csc(-c4cn[nH]c4)n3)c(-c3nnco3)n2)C1` [II-74, N-(1-((1s,3s)-3-ethoxycyclobutyl)-3-(1,3,4-oxadiazol-2-yl)-1H-pyrazol-4-yl)-2-(1H-pyrazol-4-yl)thiazole-4-carboxamide] was tested. Which EC50 (IL-23 (p19/p40); Homo sapiens, 18 h) did it give?
A: The EC50 was 405 nM.

Q: What about the EC50 (IL-23p19; Homo sapiens, THP-1, 18 h) of the same compound?
A: Its EC50 is 401 nM.

Q: Which results are given for `CC(C)(C)NC(=O)N1CC(n2cc(NC(=O)c3ccc(-c4cn[nH]c4)o3)c(-c3ccccn3)n2)C1` [Compound I-84, 3-[4-{5-(1H-Pyrazol-4-yl)furan-2-carboxamido}-3-(pyridine-2-yl)-1H-pyrazol-1-yl]-N-(tert-butyl)azetidine-1-carboxamide, free base]?
A: EC50 (IL-23 (p19/p40); Homo sapiens, 18 h): 97.7 nM; EC50 (IL-23p19; Homo sapiens, THP-1, 18 h): 42.3 nM

Q: Which results are given for `CCO[C@H]1C[C@@H](n2cc(NC(=O)c3ccc(-c4cn[nH]c4)o3)c(-c3cccc(C(F)(F)F)n3)n2)C1` [Compound I-116, N-(1-((1s,3s)-3-ethoxycyclobutyl)-3-(6-(trifluoromethyl)pyridin-2-yl)-1H-pyrazol-4-yl)-5-(1H-pyrazol-4-yl)furan-2-carboxamide]?
A: EC50 (IL-23 (p19/p40); Homo sapiens, 18 h): 218 nM; EC50 (IL-23p19; Homo sapiens, THP-1, 18 h): 226 nM

Q: `Cc1n[nH]cc1-c1nc(C(=O)Nc2cn(C(F)F)nc2-c2ccccn2)cs1` [II-96, N-(1-(difluoromethyl)-3-(pyridin-2-yl)-1H-pyrazol-4-yl)-2-(3-methyl-1H-pyrazol-4-yl)thiazole-4-carboxamide] was tested. Which EC50 (IL-23 (p19/p40); Homo sapiens, 18 h) did it give?
A: The EC50 was 457 nM.

Q: What about the EC50 (IL-23p19; Homo sapiens, THP-1, 18 h) of the same compound?
A: The EC50 was 83.7 nM.
